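Five concentrations, 48 hours, 96-well plates. At the GI50, growth is halved.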 Calls of active or inactive are those of the source. Cut-off read from the data, not from the text of the source: active = GI50 up to about 1.1 µM and inactive = higher.
Columns and labels:
Experiment in all cases: NCI anticancer screen, dose series, 48 h
ACHN = system: ACHN
LOX IMVI = system: LOX IMVI
SK-MEL-2 = system: SK-MEL-2
DMS-114 = system: DMS-114
A549 = system: A549
CAKI-1 = system: CAKI-1
OVCAR-4 = system: OVCAR-4
SF-295 = system: SF-295
XF498 = system: XF498
HOP-62 = system: HOP-62
HL-60 = system: HL-60
SF-539 = system: SF-539
HOP-92 = system: HOP-92
M19-MEL = system: M19-MEL
TK-10 = system: TK-10
KM12 = system: KM12
SW-620 = system: SW-620
KM-20L2 = system: KM-20L2
786-0 = system: 786-0
DMS-273 = system: DMS-273
COLO 205 = system: COLO 205
A498 = system: A498
EKVX = system: EKVX
IGROV-1 = system: IGROV-1
SN12C = system: SN12C
HCT-116 = system: HCT-116
SK-MEL-28 = system: SK-MEL-28
SNB-19 = system: SNB-19
SK-MEL-5 = system: SK-MEL-5
UACC-257 = system: UACC-257
OVCAR-3 = system: OVCAR-3
Malme-3M = system: Malme-3M
SF-268 = system: SF-268
NCI-H522 = system: NCI-H522
HT-29 = system: HT-29
NCI-H23 = system: NCI-H23
HCC 2998 = system: HCC 2998
SNB-75 = system: SNB-75
UACC-62 = system: UACC-62
U-251 = system: U-251
SR = system: SR
RXF 631 = system: RXF 631
HOP-18 = system: HOP-18
LXFL 529 = system: LXFL 529
SNB-78 = system: SNB-78
DLD-1 = system: DLD-1
OVCAR-8 = system: OVCAR-8
NCI-H226 = system: NCI-H226
CCRF-CEM = system: CCRF-CEM
SK-OV-3 = system: SK-OV-3
RXF 393 = system: RXF 393
K562 = system: K562
UO-31 = system: UO-31
M14 = system: M14
OVCAR-5 = system: OVCAR-5
MOLT-4 = system: MOLT-4

Measured: GI50

Fc1ccc2c(c1)cc1ccc3cccc4ccc2c1c34
inactive: ACHN > 100 µM | LOX IMVI > 100 µM | SK-MEL-2 > 100 µM | DMS-114 > 100 µM | A549 > 100 µM | CAKI-1 > 100 µM | OVCAR-4 > 100 µM | SF-295 > 100 µM | XF498 > 100 µM | HOP-62 > 100 µM | HL-60 > 100 µM | SF-539 > 100 µM | HOP-92 > 100 µM | M19-MEL > 100 µM | TK-10 > 100 µM | KM12 > 100 µM | SW-620 > 100 µM | KM-20L2 > 100 µM | 786-0 > 100 µM | DMS-273 > 100 µM | COLO 205 > 100 µM | A498 > 100 µM | EKVX 5.02 µM | IGROV-1 > 100 µM | SN12C > 100 µM | HCT-116 > 100 µM | SK-MEL-28 > 100 µM | SNB-19 > 100 µM | SK-MEL-5 > 100 µM | UACC-257 > 100 µM | OVCAR-3 > 100 µM | Malme-3M > 100 µM | SF-268 > 100 µM | NCI-H522 > 100 µM | HT-29 > 100 µM | NCI-H23 > 100 µM | HCC 2998 > 100 µM | SNB-75 > 100 µM | UACC-62 > 100 µM | U-251 > 100 µM | SR > 100 µM | RXF 631 > 100 µM | HOP-18 > 100 µM | LXFL 529 > 100 µM | SNB-78 > 100 µM | DLD-1 > 100 µM | OVCAR-8 > 100 µM | NCI-H226 > 100 µM | CCRF-CEM > 100 µM | SK-OV-3 > 100 µM | RXF 393 > 100 µM | K562 > 100 µM | UO-31 > 100 µM | M14 > 100 µM | OVCAR-5 > 100 µM | MOLT-4 > 100 µM

Reference: ChEMBL document CHEMBL1201862, “PubChem BioAssay data set” (2004)
